Reference: BigSolDB 2.1

Fc1c(I)c(F)c(I)c(F)c1I
Conditions	solubility (mole fraction)
in 1,2-dichloroethane, 290.15 K	2.33e-05
in 1,2-dichloroethane, 295.15 K	4.22e-05
in 1,2-dichloroethane, 299.15 K	6.13e-05
in 1,2-dichloroethane, 302.15 K	8.17e-05
in 1,2-dichloroethane, 305.15 K	0.000106
in 1,2-dichloroethane, 308.15 K	0.000131
in 1,2-dichloroethane, 311.15 K	0.000153
in 1,2-dichloroethane, 314.15 K	0.000181
in 1,2-dichloroethane, 317.15 K	0.000207
in 1,2-dichloroethane, 320.15 K	0.000224
in 1,2-dichloroethane, 325.15 K	0.000242
in 1,2-dichloroethane, 330.15 K	0.000263
in 1,4-dioxane, 290.15 K	0.00028
in 1,4-dioxane, 295.15 K	0.000334
in 1,4-dioxane, 299.15 K	0.000387
in 1,4-dioxane, 302.15 K	0.000413
in 1,4-dioxane, 305.15 K	0.000456
in 1,4-dioxane, 308.15 K	0.000506
in 1,4-dioxane, 311.15 K	0.000553
in 1,4-dioxane, 314.15 K	0.000593
in 1,4-dioxane, 317.15 K	0.000641
in 1,4-dioxane, 320.15 K	0.000697
in 1,4-dioxane, 325.15 K	0.000773
in 1,4-dioxane, 330.15 K	0.00088
in THF, 290.25 K	0.00478
in THF, 295.45 K	0.00497
in THF, 299.85 K	0.00511
in THF, 305.15 K	0.00534
in THF, 310.25 K	0.00555
in THF, 315.35 K	0.00578
in THF, 320.15 K	0.00601
in THF, 326.15 K	0.0063
in THF, 330.35 K	0.00648
in acetone, 290.15 K	2.02e-05
in acetone, 295.15 K	3.22e-05
in acetone, 299.15 K	4.55e-05
in acetone, 302.15 K	5.89e-05
in acetone, 305.15 K	7.48e-05
in acetone, 308.15 K	9.01e-05
in acetone, 311.15 K	0.000107
in acetone, 314.15 K	0.000127
in acetone, 317.15 K	0.000144
in acetone, 320.15 K	0.000162
in acetone, 325.15 K	0.000182
in acetone, 330.15 K	0.000202
in acetonitrile, 290.35 K	0.00382
in acetonitrile, 295.85 K	0.00415
in acetonitrile, 301.55 K	0.00469
in acetonitrile, 306.95 K	0.00536
in acetonitrile, 310.15 K	0.00568
in acetonitrile, 316.95 K	0.00636
in acetonitrile, 321.55 K	0.00722
in acetonitrile, 327.35 K	0.00842
in acetonitrile, 332.15 K	0.00917
in ethanol, 290.15 K	0.00057
in ethanol, 295.15 K	0.000735
in ethanol, 299.15 K	0.000874
in ethanol, 302.15 K	0.000962
in ethanol, 305.15 K	0.00108
in ethanol, 308.15 K	0.00119
in ethanol, 311.15 K	0.00128
in ethanol, 314.15 K	0.00138
in ethanol, 317.15 K	0.00149
in ethanol, 320.15 K	0.0016
in ethanol, 325.15 K	0.00174
in ethanol, 330.15 K	0.00193
in ethyl acetate, 290.15 K	0.000485
in ethyl acetate, 295.15 K	0.000621
in ethyl acetate, 299.15 K	0.000756
in ethyl acetate, 302.15 K	0.00086
in ethyl acetate, 305.15 K	0.000976
in ethyl acetate, 308.15 K	0.00107
in ethyl acetate, 311.15 K	0.00118
in ethyl acetate, 314.15 K	0.00128
in ethyl acetate, 317.15 K	0.00136
in ethyl acetate, 320.15 K	0.00145
in ethyl acetate, 325.15 K	0.00155
in ethyl acetate, 330.15 K	0.00167
in isopropanol, 291.25 K	0.00214
in isopropanol, 296.35 K	0.00291
in isopropanol, 301.45 K	0.00369
in isopropanol, 306.45 K	0.00432
in isopropanol, 311.45 K	0.00523
in isopropanol, 316.55 K	0.00598
in isopropanol, 321.45 K	0.00681
in isopropanol, 326.85 K	0.00745
in isopropanol, 331.55 K	0.00802
in methanol, 290.15 K	2.24e-05
in methanol, 295.15 K	3.71e-05
in methanol, 299.15 K	5.15e-05
in methanol, 302.15 K	6.58e-05
in methanol, 305.15 K	8.12e-05
in methanol, 308.15 K	9.61e-05
in methanol, 311.15 K	0.00011
in methanol, 314.15 K	0.000121
in methanol, 317.15 K	0.000131
in methanol, 320.15 K	0.00014
in methanol, 325.15 K	0.00015
in methanol, 330.15 K	0.000154
in n-hexane, 289.25 K	0.0059
in n-hexane, 293.55 K	0.00643
in n-hexane, 298.85 K	0.00732
in n-hexane, 303.85 K	0.00818
in n-hexane, 308.95 K	0.00908
in n-hexane, 313.75 K	0.0101
in n-hexane, 318.55 K	0.0116
in n-hexane, 324.25 K	0.0134
in n-hexane, 329.35 K	0.0149
in n-propanol, 291.25 K	0.00216
in n-propanol, 296.35 K	0.00274
in n-propanol, 301.35 K	0.00325
in n-propanol, 306.35 K	0.00366
in n-propanol, 311.65 K	0.00417
in n-propanol, 316.55 K	0.00482
in n-propanol, 321.55 K	0.00531
in n-propanol, 326.45 K	0.00585
in n-propanol, 331.45 K	0.00643
in toluene, 290.15 K	0.000169
in toluene, 295.15 K	0.000217
in toluene, 299.15 K	0.000261
in toluene, 302.15 K	0.000294
in toluene, 305.15 K	0.000329
in toluene, 308.15 K	0.000368
in toluene, 311.15 K	0.000404
in toluene, 314.15 K	0.000444
in toluene, 317.15 K	0.000479
in toluene, 320.15 K	0.000515
in toluene, 325.15 K	0.000573
in toluene, 330.15 K	0.000623
